Results reported in patent US11197878B2, “Anti-inflammatory composition including novel quercetin-based compound” (AMOREPACIFIC CORPORATION, priority 2017, dated 2021).

System: skin
Experiment: Test for skin accumulated stimulus, HRIPT (Human repeated insult patch tests)
Assay type: in vivo
Set-up: key to skin reactivity (ICDRG criteria): −: negative (no response); ±: doubtful or slight erythema, etc.; +: weak reaction (which is accompanied with no phlyctenule), erythema, papule; ++: severe reaction (which is accompanied with phlyctenule), erythema, papule, phlyctenule; +++: strong reaction, bullae reaction
Conditions: for Number of examinees who exhibited ±, +, or ++ reactivity, 5th: 5th patch; for Number of examinees who exhibited ±, +, or ++ reactivity, 6th: 6th patch; for Number of examinees who exhibited ±, +, or ++ reactivity, 7th: 7th patch; for Number of examinees who exhibited ±, +, or ++ reactivity, 8th: 8th patch; for average reactivity: 9 patches over 3 weeks, 15 examinees, less than 3 is considered a stable composition; for Number of examinees who exhibited ±, +, or ++ reactivity, 9th: 9th patch; for Number of examinees who exhibited ±, +, or ++ reactivity, 1st: 1st patch; for Number of examinees who exhibited ±, +, or ++ reactivity, 2nd: 2nd patch; for Number of examinees who exhibited ±, +, or ++ reactivity, 3rd: 3rd patch; for Number of examinees who exhibited ±, +, or ++ reactivity, 4th: 4th patch
Experimental: HRIPT (Human repeated insult patch tests) was conducted in order to identify skin accumulated stimulus of quercetin3-O-[3-O″-(E)-p-coumaroyl][β-D-glucopyranosyl-(1→3)-O-α-L-rhamnopyranosyl-(1→6)-O-β-D-glucopyranoside] and quercetin3-O-[3-O″-(E)-p-coumaroyl][α-L-rhamnopyranosyl-(1→6)-O-β-D-glucopyranoside] and to calculate the concentration range that can be used in skin. Specifically, 15 healthy adult examinees were randomly selected, and test compositions in which the compounds were respectively comprised in an amount of 0.5 wt. %, 1 wt. %, and 3 wt. % (the compositions for skin, comprising an emulsifying agent, a stabilizer, purified water, etc. in addition to the compounds) were dropped in the amount of 20 μl per chamber (IQ chamber, Epitest Ltd, Finland), and patched on the right site of the upper back of the examinees, and then, after 24 hours, the patch was replaced with a new patch. A total of 9 patches were conducted, three times a week for total 3 weeks, in such manner, the skin reactions before and after patch were examined every time, and the skin reactions until 48 hours after removing the final patch were observed, and the average reactivity was observed. The skin reaction was determined according to the criteria of International Contact Dermatitis Research Group (ICDRG). In the above table, “New Material 31” refers to quercetin3-O-[3-O″-(E)-p-coumaroyl][β-D-glucopyranosyl-(1→3)-O-α-L-rhamnopyranosyl-(1→6)-O-β-D-glucopyranoside], and “New Material 32” refers to quercetin3-O-[3-O″-(E)-p-coumaroyl][α-L-rhamnopyranosyl-(1→6)-O-β-D-glucopyranoside].

Number of examinees who exhibited ±, +, or ++ reactivity, 5th (1 wt. %, line 1 of 3 (±)): 0 number | Number of examinees who exhibited ±, +, or ++ reactivity, 5th (1 wt. %, line 2 of 3 (+)): 0 number | Number of examinees who exhibited ±, +, or ++ reactivity, 5th (1 wt. %, line 3 of 3 (++)): 0 number | Number of examinees who exhibited ±, +, or ++ reactivity, 6th (1 wt. %, line 1 of 3 (±)): 0 number | Number of examinees who exhibited ±, +, or ++ reactivity, 6th (1 wt. %, line 2 of 3 (+)): 0 number | Number of examinees who exhibited ±, +, or ++ reactivity, 6th (1 wt. %, line 3 of 3 (++)): 0 number | Number of examinees who exhibited ±, +, or ++ reactivity, 7th (1 wt. %, line 1 of 3 (±)): 0 number | Number of examinees who exhibited ±, +, or ++ reactivity, 7th (1 wt. %, line 2 of 3 (+)): 0 number | Number of examinees who exhibited ±, +, or ++ reactivity, 7th (1 wt. %, line 3 of 3 (++)): 0 number | Number of examinees who exhibited ±, +, or ++ reactivity, 8th (1 wt. %, line 1 of 3 (±)): 0 number | Number of examinees who exhibited ±, +, or ++ reactivity, 8th (1 wt. %, line 2 of 3 (+)): 0 number | Number of examinees who exhibited ±, +, or ++ reactivity, 8th (1 wt. %, line 3 of 3 (++)): 0 number | average reactivity (1 wt. %): 0 | Number of examinees who exhibited ±, +, or ++ reactivity, 9th (1 wt. %, line 1 of 3 (±)): 0 number | Number of examinees who exhibited ±, +, or ++ reactivity, 9th (1 wt. %, line 2 of 3 (+)): 0 number | Number of examinees who exhibited ±, +, or ++ reactivity, 9th (1 wt. %, line 3 of 3 (++)): 0 number | Number of examinees who exhibited ±, +, or ++ reactivity, 1st (3 wt. %, line 1 of 3 (±)): 0 number | Number of examinees who exhibited ±, +, or ++ reactivity, 1st (3 wt. %, line 2 of 3 (+)): 0 number | Number of examinees who exhibited ±, +, or ++ reactivity, 1st (3 wt. %, line 3 of 3 (++)): 0 number | Number of examinees who exhibited ±, +, or ++ reactivity, 2nd (3 wt. %, line 1 of 3 (±)): 0 number | Number of examinees who exhibited ±, +, or ++ reactivity, 2nd (3 wt. %, line 2 of 3 (+)): 0 number | Number of examinees who exhibited ±, +, or ++ reactivity, 2nd (3 wt. %, line 3 of 3 (++)): 0 number | Number of examinees who exhibited ±, +, or ++ reactivity, 3rd (3 wt. %, line 1 of 3 (±)): 0 number | Number of examinees who exhibited ±, +, or ++ reactivity, 3rd (3 wt. %, line 2 of 3 (+)): 0 number | Number of examinees who exhibited ±, +, or ++ reactivity, 3rd (3 wt. %, line 3 of 3 (++)): 0 number | Number of examinees who exhibited ±, +, or ++ reactivity, 4th (3 wt. %, line 1 of 3 (±)): 0 number | Number of examinees who exhibited ±, +, or ++ reactivity, 4th (3 wt. %, line 2 of 3 (+)): 0 number | Number of examinees who exhibited ±, +, or ++ reactivity, 4th (3 wt. %, line 3 of 3 (++)): 0 number | Number of examinees who exhibited ±, +, or ++ reactivity, 5th (3 wt. %, line 1 of 3 (±)): 0 number | Number of examinees who exhibited ±, +, or ++ reactivity, 5th (3 wt. %, line 2 of 3 (+)): 0 number | Number of examinees who exhibited ±, +, or ++ reactivity, 5th (3 wt. %, line 3 of 3 (++)): 0 number | Number of examinees who exhibited ±, +, or ++ reactivity, 6th (3 wt. %, line 1 of 3 (±)): 0 number | Number of examinees who exhibited ±, +, or ++ reactivity, 6th (3 wt. %, line 2 of 3 (+)): 0 number | Number of examinees who exhibited ±, +, or ++ reactivity, 6th (3 wt. %, line 3 of 3 (++)): 0 number | Number of examinees who exhibited ±, +, or ++ reactivity, 7th (3 wt. %, line 1 of 3 (±)): 0 number | Number of examinees who exhibited ±, +, or ++ reactivity, 7th (3 wt. %, line 2 of 3 (+)): 0 number | Number of examinees who exhibited ±, +, or ++ reactivity, 7th (3 wt. %, line 3 of 3 (++)): 0 number | Number of examinees who exhibited ±, +, or ++ reactivity, 8th (3 wt. %, line 1 of 3 (±)): 0 number | Number of examinees who exhibited ±, +, or ++ reactivity, 8th (3 wt. %, line 2 of 3 (+)): 0 number | Number of examinees who exhibited ±, +, or ++ reactivity, 8th (3 wt. %, line 3 of 3 (++)): 0 number | average reactivity (3 wt. %): 0 | Number of examinees who exhibited ±, +, or ++ reactivity, 9th (3 wt. %, line 1 of 3 (±)): 0 number | Number of examinees who exhibited ±, +, or ++ reactivity, 9th (3 wt. %, line 2 of 3 (+)): 0 number | Number of examinees who exhibited ±, +, or ++ reactivity, 9th (3 wt. %, line 3 of 3 (++)): 0 number | skin reactivity (ICDRG criteria) (within the range of contents 0.5 wt. %, 1 wt. %, 3 wt. %): −
SMILES: C[C@@H]1O[C@@H](OC[C@H]2O[C@@H](Oc3c(-c4ccc(O)c(O)c4)oc4cc(O)cc(O)c4c3=O)[C@H](O)[C@@H](OC(=O)/C=C/c3ccc(O)cc3)[C@@H]2O)[C@H](O)[C@H](O)[C@H]1O [New Material 32, quercetin3-O-[3-O″-(E)-p-coumaroyl][α-L-rhamnopyranosyl-(1→6)-O-β-D-glucopyranoside]]
